These results are taken from patent publication EP4563146A1 (IRBM S.P.A., priority 2023, dated 2025).

Structures are written as SMILES. Like-named read-outs stand apart in the source and are kept apart here.

Assay [1] concerns the target T1, West Nile Virus (WNV) NS2B-NS3 protease (West Nile virus, UniProt Q9Q6P4).
T1 construct: NS2B1423-1470); purchased R&D 2907-SE-020
The assay is described as follows: WNV protease inhibition assay. It counts as biochemical. The conditions noted are these: Table 4; letter codes for IC50. From the text: WNV protease inhibition assay

Another assay has as its system ZIKV replicon. Description: ZIKV replication inhibition assay (NanoLuc replicon in Vero cells). The following applies: 72 h. On the technique in general: A replicon is a self-replicating genome or part of one, used to study replication in cells.
Setting [2] is: Zika virus, Vero, read-out: ZIKA Cell_Nanoluc, Vero cells with stable ZIKV replicon, 72 h, Nano-Glo readout.
Setting [3] is: Zika virus, Vero, read-out: ZIKA Cell_Nanoluc.

T1 sequence (Q9Q6P4 1423-1470): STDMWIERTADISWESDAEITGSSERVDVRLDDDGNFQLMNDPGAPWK
T1 sequence (Q9Q6P4 1506-1689): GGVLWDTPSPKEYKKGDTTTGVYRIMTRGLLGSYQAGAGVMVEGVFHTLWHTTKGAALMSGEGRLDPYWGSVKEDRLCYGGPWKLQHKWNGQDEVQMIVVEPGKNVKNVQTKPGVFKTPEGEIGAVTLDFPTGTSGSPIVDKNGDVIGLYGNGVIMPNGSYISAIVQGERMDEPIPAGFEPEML

Turning to `CNC(=O)[C@@H]1CCC[C@@H]([n+]2cc([N-]C(=O)Nc3cc(NC(=O)Cc4ccccc4C)cc(C(F)(F)F)c3)on2)C1` [Example 231, (3-((1R,3R)-3-(Methylcarbamoyl)cyclohexyl)-1,2,3-oxadiazol-3-ium-5-yl)((3-(2-(o-tolyl)acetamido)-5-(trifluoromethyl)phenyl)-carbamoyl)amide], the 50% inhibitory concentration (IC50) in assay [1] was < 100 nM. The EC50 with ZIKV replicon (setting [2]) is 1000 to 20000 nM.

With `CNC(=O)[C@H]1CCC[C@@H]([n+]2cc([N-]C(=O)Nc3cc(NC(=O)Cc4ccccc4C)cc(C(F)(F)F)c3)on2)C1` [Example 232, (3-((1R,3S)-3-(Methylcarbamoyl)cyclohexyl)-1,2,3-oxadiazol-3-ium-5-yl)((3-(2-(o-tolyl)acetamido)-5-(trifluoromethyl)phenyl)-carbamoyl)amide], the IC50 in assay [1] was in the range of 100 to 1000 nM. Also, the EC50 in the assay on ZIKV replicon (setting [2]) fell in the range of 1000 to 20000 nM.

`Cc1ncnc(C)c1-c1ccc(C[n+]2cc([N-]C(=O)N[C@H]3CC[C@H](C(F)(F)F)C3)on2)cc1` [Example 233, (3-(4-(4,6-Dimethylpyrimidin-5-yl)benzyl)-1,2,3-oxadiazol-3-ium-5-yl)(((1S,3S)-3-(trifluoromethyl)cyclopentyl)carbamoyl)amide] gave an IC50 in assay [1] of 100 to 1000 nM. In the assay with ZIKV replicon (setting [2]), the EC50 fell in the range of 100 to 1000 nM.

In the case of `Cc1ccccc1CC(=O)Nc1cc(NC(=O)[N-]c2c[n+]([C@@H]3CCC[C@H](C(=O)N(C)C)C3)no2)cc(C(F)(F)F)c1` [Example 234, (3-((1R,3S)-3-(Dimethylcarbamoyl)cyclohexyl)-1,2,3-oxadiazol-3-ium-5-yl)((3-(2-(o-tolyl)-acetamido)-5-(trifluoromethyl)phenyl)-carbamoyl)amide], the IC50 in assay [1] fell in the range of 100 to 1000 nM. Also, in the assay with ZIKV replicon (setting [2]), the EC50 was 1000 to 20000 nM.

With `Cc1ccccc1CC(=O)Nc1cc(NC(=O)[N-]c2c[n+]([C@@H]3CCC[C@@H](C(N)=O)C3)no2)cc(C(F)(F)F)c1` [Example 235, (3-((1R,3R)-3-Carbamoylcyclohexyl)-1,2,3-oxadiazol-3-ium-5-yl)((3-(2-(o-tolyl)acetamido)-5-(trifluoromethyl)phenyl)carbamoyl)amide], the IC50 in assay [1] is < 100 nM. In the assay with ZIKV replicon (read-out: ZIKA Cell_Nanoluc, Vero cells with stable ZIKV replicon, Nano-Glo readout), the EC50 was 100 to 1000 nM.

`O=C([N-]c1c[n+](Cc2ccc(-c3cncnc3)cc2)no1)Nc1ccnc(C(F)(F)F)c1` [Example 236, (3-(4-(Pyrimidin-5-yl)benzyl)-1,2,3-oxadiazol-3-ium-5-yl)((2-(trifluoromethyl)pyridin-4-yl)-carbamoyl)amide] yielded an IC50 in assay [1] of 100 to 1000 nM. Moreover, the EC50 with ZIKV replicon (setting [2]) fell in the range of 100 to 1000 nM.

In turn, `Cc1nn(C)cc1-c1ccc(C[n+]2cc([N-]C(=O)Nc3ccnc(C(F)(F)F)c3)on2)cc1` [Example 237, (3-(4-(1,3-Dimethyl-1H-pyrazol-4-yl)benzyl)-1,2,3-oxadiazol-3-ium-5-yl)((2-(trifluoromethyl)-pyridin-4-yl)carbamoyl)amide] had an IC50 in assay [1] of 100 to 1000 nM. Besides, the EC50 in the assay on ZIKV replicon (setting [2]) fell in the range of 1000 to 20000 nM.

In turn, `Cc1cnn(C)c1-c1ccc(C[n+]2cc([N-]C(=O)Nc3ccc(C#N)c(C(F)(F)F)c3)on2)cc1` [Example 238, ((4-Cyano-3-(trifluoromethyl)phenyl)-carbamoyl)(3-(4-(1,4-dimethyl-1H-pyrazol-5-yl)benzyl)-1,2,3-oxadiazol-3-ium-5-yl)amide] had an IC50 in assay [1] of 100 to 1000 nM. Besides, the EC50 in the assay on ZIKV replicon (setting [2]) was in the range of 1000 to 20000 nM.

For `Cc1cnn(C2COC2)c1-c1ccc(C[n+]2cc([N-]C(=O)Nc3ccnc(C(F)(F)F)c3)on2)cc1` [Example 239, (3-((4-(4-Methyl-2-(oxetan-3-yl)pyrazol-3-yl]phenyl)methyl)oxadiazol-3-ium-5-yl)-((2-(trifluoromethyl)pyridin-4-yl)carbamoyl)-azanide], in assay [1], the IC50 is < 100 nM. The EC50 in the assay on ZIKV replicon (setting [3]) was < 100 nM.

On to `Cc1ccccc1CC(=O)Nc1cc(NC(=O)[N-]c2c[n+]([C@H]3CCCC[C@H]3O)no2)cc(C(F)(F)F)c1` [Example 240, (3-((1S,2R)-2-Hydroxycyclohexyl)-1,2,3-oxadiazol-3-ium-5-yl)((3-(2-(o-tolyl)acetamido)-5-(trifluoromethyl)phenyl)carbamoyl)amide], for which, in assay [1], the IC50 lay within 100 to 1000 nM. Besides, the EC50 with ZIKV replicon (setting [2]) lay in the range of 1000 to 20000 nM.

With `Cc1ncncc1[C@H]1CC[C@H](C[n+]2cc([N-]C(=O)Nc3ccnc(C(F)(F)F)c3)on2)CC1` [Example 241, (3-(((1R,4S)-4-(4-Methylpyrimidin-5-yl)cyclohexyl)methyl)-1,2,3-oxadiazol-3-ium-5-yl)((2-(trifluoromethyl)pyridin-4-yl)carbamoyl)-amide], the concentration for half-maximal inhibition (IC50) in assay [1] was < 100 nM. In the assay with ZIKV replicon (setting [3]), the EC50 is 100 to 1000 nM.

As for `Cc1ccccc1CC(=O)Nc1cc(NC(=O)[N-]c2c[n+]([C@H]3CC[C@H](C(=O)N(C)C)CC3)no2)cc(C(F)(F)F)c1` [Example 248, (3-((1R,4R)-4-(Dimethylcarbamoyl)-cyclohexyl)-1,2,3-oxadiazol-3-ium-5-yl)((3-(2-(o-tolyl)acetamido)-5-(trifluoromethyl)phenyl)-carbamoyl)amide], in assay [1], the IC50 was < 100 nM. Moreover, the EC50 with ZIKV replicon (setting [3]) lay within 1000 to 20000 nM.

Consider `COc1ccc(NC(=O)[N-]c2c[n+](Cc3ccc(-c4c(C)ncnc4C)cc3)no2)cc1C(F)(F)F` [Example 249, (3-(4-(4,6-Dimethylpyrimidin-5-yl)benzyl)-1,2,3-oxadiazol-3-ium-5-yl)((4-methoxy-3-(trifluoromethyl)phenyl)carbamoyl)amide], for which, in assay [1], the IC50 was 100 to 1000 nM. In the assay with ZIKV replicon (setting [2]), the EC50 is < 100 nM.

As to `Cc1cn(C2COC2)nc1-c1ccc(C[n+]2cc([N-]C(=O)Nc3ccnc(C(F)(F)F)c3)on2)cc1` [Example 250, (3-(4-(4-Methyl-1-(oxetan-3-yl)-1H-pyrazol-3-yl)benzyl)-1,2,3-oxadiazol-3-ium-5-yl)((2-(trifluoromethyl)pyridin-4-yl)carbamoyl)amide], in assay [1], the IC50 fell in the range of 100 to 1000 nM. Further, the EC50 in the assay with ZIKV replicon (setting [2]) is 100 to 1000 nM.

For `CNC(=O)[C@H]1CC[C@H]([n+]2cc([N-]C(=O)Nc3cc(NC(=O)Cc4ccccc4C)cc(C(F)(F)F)c3)on2)CC1` [Example 251, rac-(3-((1R,4R)-4-(Methylcarbamoyl)-cyclohexyl)-1,2,3-oxadiazol-3-ium-5-yl)((3-(2-(o-tolyl)acetamido)-5-(trifluoromethyl)phenyl)-carbamoyl)amide], the IC50 in assay [1] was 100 to 1000 nM. For the same molecule, in the assay with ZIKV replicon (setting [3]), the EC50 fell in the range of 1000 to 20000 nM.

On to `Cc1ccccc1CC(=O)Nc1cc(NC(=O)[N-]c2c[n+]([C@H]3CC[C@H](C(=O)N4CCCC4)CC3)no2)cc(C(F)(F)F)c1` [Example 254, (3-((1R,4R)-4-(Pyrrolidine-1-carbonyl)-cyclohexyl)-1,2,3-oxadiazol-3-ium-5-yl)((3-(2-(o-tolyl)acetamido)-5-(trifluoromethyl)phenyl)-carbamoyl)amide], for which, in assay [1], the IC50 was < 100 nM. Moreover, the EC50 in the assay with ZIKV replicon (setting [3]) fell in the range of 1000 to 20000 nM.

Molecule `Cc1ccccc1CC(=O)Nc1cc(NC(=O)[N-]c2c[n+]([C@@H]3CCC[C@H](C(N)=O)C3)no2)cc(C(F)(F)F)c1` [Example 255, (3-((1R,3S)-3-Carbamoylcyclohexyl)-1,2,3-oxadiazol-3-ium-5-yl)((3-(2-(o-tolyl)acetamido)-5-(trifluoromethyl)phenyl)carbamoyl)amide] registered a half-maximal inhibitory concentration (IC50) in assay [1] of 100 to 1000 nM. Besides, the EC50 in the assay on ZIKV replicon (setting [2]) fell in the range of 1000 to 20000 nM.

In the case of `Cc1ccccc1CC(=O)Nc1cc(NC(=O)[N-]c2c[n+]([C@H]3CC[C@H](N(C)C)CC3)no2)cc(C(F)(F)F)c1` [Example 257, (3-((1R,4R)-4-(Dimethylamino)cyclohexyl)-1,2,3-oxadiazol-3-ium-5-yl)((3-(2-(o-tolyl)-acetamido)-5-(trifluoromethyl)phenyl)-carbamoyl)amide], in assay [1], the IC50 was < 100 nM. Moreover, in the assay on ZIKV replicon (setting [3]), the EC50 lay within 1000 to 20000 nM.

With `Cc1ncccc1-c1ccc(C[n+]2cc([N-]C(=O)Nc3ccnc(C(F)(F)F)c3)on2)cc1` [Example 258, (3-(4-(2-Methylpyridin-3-yl)benzyl)-1,2,3-oxadiazol-3-ium-5-yl)((2-(trifluoromethyl)pyridin-4-yl)carbamoyl)amide], the IC50 in assay [1] was < 100 nM. In addition, the EC50 in the assay with ZIKV replicon (setting [2]) is < 100 nM.

In assay [1], `Cc1nc(-c2ccc(C[n+]3cc([N-]C(=O)Nc4ccnc(C(F)(F)F)c4)on3)cc2)c(C)s1` [Example 259, (3-(4-(2,5-Dimethylthiazol-4-yl)benzyl)-1,2,3-oxadiazol-3-ium-5-yl)((2-(trifluoromethyl)pyridin-4-yl)carbamoyl)amide] gave an IC50 of 100 to 1000 nM. In addition, in the assay on ZIKV replicon (setting [2]), the EC50 was < 100 nM.

Regarding `Cc1nc(N)ncc1-c1ccc(C[n+]2cc([N-]C(=O)Nc3ccnc(C(F)(F)F)c3)on2)cc1` [Example 260, (3-(4-(2-Amino-4-methylpyrimidin-5-yl)benzyl)-1,2,3-oxadiazol-3-ium-5-yl)((2-(trifluoromethyl)pyridin-4-yl)carbamoyl)amide], the IC50 in assay [1] is < 100 nM. The EC50 in the assay with ZIKV replicon (setting [2]) is < 100 nM.

In the case of `Cc1ncnc(C)c1-c1ccc(C[n+]2cc([N-]C(=O)Nc3ccc(O)c(C(F)(F)F)c3)on2)cc1` [Example 261, (3-(4-(4,6-Dimethylpyrimidin-5-yl)benzyl)-1,2,3-oxadiazol-3-ium-5-yl)((4-hydroxy-3-(trifluoromethyl)phenyl)carbamoyl)amide], the 50% inhibitory concentration (IC50) in assay [1] was < 100 nM. Moreover, the EC50 in the assay with ZIKV replicon (setting [2]) was < 100 nM.

In turn, `COC(=O)c1ccc(NC(=O)[N-]c2c[n+](Cc3ccc(-c4c(C)ncnc4C)cc3)no2)cc1C(F)(F)F` [Example 262, (3-(4-(4,6-Dimethylpyrimidin-5-yl)benzyl)-1,2,3-oxadiazol-3-ium-5-yl)((4-(methoxy-carbonyl)-3-(trifluoromethyl)phenyl)carbamoyl) amide] had a half-inhibitory concentration (IC50) in assay [1] of 100 to 1000 nM. Moreover, the EC50 with ZIKV replicon (setting [2]) lay in the range of 100 to 1000 nM.

In the case of `Cc1ccnc(C)c1-c1ccc(C[n+]2cc([N-]C(=O)Nc3ccnc(C(F)(F)F)c3)on2)cc1` [Example 263, (3-(4-(2,4-Dimethylpyridin-3-yl)benzyl)-1,2,3-oxadiazol-3-ium-5-yl)((2-(trifluoromethyl)pyridin-4-yl)carbamoyl)amide], in assay [1], the IC50 is < 100 nM. Moreover, the EC50 in the assay with ZIKV replicon (setting [2]) was < 100 nM.

The IC50 is the point on the concentration scale where inhibition reaches its midpoint.
